Entries after “also recorded” stand apart in the source; their conditions may differ.
What was measured:
[1] = tested on: AMPK and eif2-α phosphorylation, GRP78 and CHOP expression in MDA-MB-435 cells; test: Western blot of ATP and ER stress/UPR markers; format: cell-based, human
Text: (§1) Cell types: Human tumor cell lines 1469 (pancreatic) and MDA-MB-435 (melanoma) were purchased from American Type Culture Collection (ATCC), and maintained in DMEM with 1 g/l of glucose (Mediatech). Mouse embryonic fibroblasts (MEF) that are PERK knock-out and its wild type pair were a kind gift from Dr. Mark Lehrman (University of Southwestern Texas, Dallas, Tex.). MEFs that have wild type eif2-α and eif2-α with its serine51 mutated to alanine were a kind gift from Dr. Glen Barber (University of Miami, Miami, Fla.). All MEFS were maintained in RPMI with 2 g/l of glucose (Invitrogen). All culture media were supplemented with 10% fetal bovine serum (FBS) (Invitrogen), penicillin/streptomycin (Invitrogen) and 0.1% Plasmocin (only for cell passage) (InvivoGen) unless otherwise specified. Cells were grown under 5% CO2 at 37° C.
(§2) Immunoblotting analysis: Cells were seeded onto six-well plates and cultured for 18-22 h to reach 40-70% confluence. Following drug exposure for the indicated times, cells were harvested and lysed with the lysis buffer (100 mM Tris-HCl at pH 7.4, 1% SDS, phosphatase inhibitor cocktail 2 and protease inhibitor cocktail from Sigma-Aldrich). Protein concentrations of each sample were determined using a Micro BCA Protein Assay Kit (Thermo Scientific) according to the manufacturer's directions, and equal amounts of proteins were loaded onto 4-15% Tris-HCl gradient gels (except 12% gels for siRNA experiments) (Bio-Rad). After SDS-PAGE, proteins were transferred onto a polyvinylidene fluoride (PVDF) membrane (Millipore), blocked with 5% milk and probed with corresponding primary antibodies overnight (except 1 h for β-actin). The membrane was washed and probed with secondary antibodies for 1 h. Membrane was then incubated with SuperSignal West Pico or Femto Chemiluminescent Substrate (Thermo Scientific) and signals were visualized on Blue Lite Autorad Films (ISCBioExpress). All primary antibodies were used at 1:1000 dilution except for Atg7 (1:300) and β-actin (1:10000), and the secondary antibodies were used at 1:10000. Representative blots from at least three independent experiments were shown unless otherwise indicated.
(§3) siRNA transfection: Cells were seeded into 25-cm^2 flasks and cultured for 24 h to reach ˜60% confluence using antibiotics-free media. Then, cells were transfected with anti-Luc siRNA-1 (targeting luciiferase) or ON-TARGETplus SMARTpool siRNA against PERK or GCN2 using the DharmaFECT siRNA transfection reagent #2 (Dharmacon). Twenty-four hours after transfection, cells were collected and re-seeded onto 6-well or 24-well plates and drug-treated for immunoblotting or cytotoxicity analyses, respectively.

PERK−/− MEFs = test: Cell death analysis in PERK knock-out MEFs; format: cell-based, mouse
Text: as §1
(§4) Growth inhibition and Cytotoxicity assays: Cells were seeded onto 24-well plates and cultured for 18-22 h. After drug exposure for 48 hours, attached cells and their respective culture media were collected and centrifuged at 400 g for 5 min. The pellets were then resuspended in Hanks Balanced Salt Solution (HBSS) (Mediatech) and analyzed with Vi-Cell cell viability analyzer (Beckman Coulter) based on trypan blue exclusion. Results were shown as the percentages of dead cells out of total cells counted. Data were the averages of triplicate samples +SD from one representative experiment out of at least three independent analyses unless otherwise indicated.
as §3

PERK+/+ MEFs = test: Cell death analysis in wild type MEFs; format: cell-based, mouse; conditions: similar conditions as for PERK−/− cells
Text: as §1
as §4, with “Data were the averages of triplicate samples +SD from one representative experiment out of at least three independent analyses unless otherwise indicated.” left out

[2] = tested on: eif2-α and GCN2 phosphorylation in PERK−/− MEFs; test: Western blot of phosphorylated eif2-α and GCN2 in PERK knock-out MEFs; format: cell-based, mouse
Text: as §1, §2

MEF eif2a A/A = test: Cell death analysis in MEFs with non-phosphorylatable eif2-α; format: cell-based, mouse; conditions: 48 hours
Text: as §1
as §4, with “Data were the averages of triplicate samples +SD from one representative experiment out of at least three independent analyses unless otherwise indicated.” left out

[3] = tested on: patients with various tumor types; conditions: in combination with taxotere; cited from earlier work
MDA-MB-435 cells = test: Growth inhibition assay, Vi-Cell trypan blue exclusion; format: cell-based, human; conditions: 48 hours, equivalent doses, i.e. 0.3 mM and 2 mM
Text: as §1
as §4, with “Data were the averages of triplicate samples +SD from one representative experiment out of at least three independent analyses unless otherwise indicated.” left out

## O=CC[C@@H](O)[C@H](O)[C@H](O)CO [2-DG, 2-Deoxy-D-glucose]
[1]; 2-DG 0.2 mM and 2 mM, 24 hours
  eIF2a phosphorylation: phosphorylated (inhibited)
[1]; 2-DG 0.2 mM, 24 hours
  AMPK phosphorylation: phosphorylated
[1]; 2-DG, aerobic conditions
  levels of UPR chaperone GRP 78: increased levels
PERK−/− MEFs; 48 hours
  toxicity of 2-DG in PERK−/− vs PERK+/+ MEFs: more toxic; also recorded: more sensitive
PERK+/+ MEFs
  2-DG toxicity in PERK+/+ cells with siRNA against GCN2 or increased glutamine: not increased
[2]; 2-DG 2 and 8 mM, 4 mM glutamine, 24 hours
  GCN2 phosphorylation induced by 2-DG: induces phosphorylation of GCN2
[2]; as a function of time of treatment with 2-DG
  phosphorylated eif2-α levels in PERK−/− vs PERK+/+ cells: significantly lower levels
MEF eif2a A/A
  sensitivity of eif2-α mutant MEFs to toxic effects of 2-DG vs parental: more sensitive
[3]
  tolerability in phase I trial: well-tolerated

## O=C[C@H](F)[C@@H](O)[C@H](O)[C@H](O)CO [2-FDG, 2-fluoro-deoxy-D-glucose]
MDA-MB-435 cells
  growth inhibitory activity compared with 2-DG: significantly less growth inhibitory activity than 2-DG
[1]; equivalent doses, 0.3 mM and 2 mM
  induction of UPR marker GRP 78 compared with 2-DG: less induction
PERK−/− MEFs; doses that do not induce ER stress but block glycolysis, 48 hours
  toxicity of 2-FDG in PERK−/− cells: very little or no toxicity

## NC(=O)CC[C@H](N)C(=O)O [glutamine]
PERK−/− MEFs; 8 mM glutamine, 2-DG 48 hours
  2-DG toxicity in PERK−/− cells in 8 mM vs 4 mM glutamine: increased toxicity
[2]; 2-DG treated PERK−/− cells, exogenous glutamine
  eif2-α phosphorylation with exogenous glutamine: reduces
[2]; glutamine increased to 8 mM
  2-DG induced GCN2 phosphorylation with exogenous glutamine: attenuated

Reference: patent US20130184330A1, “COMPOSITIONS AND METHODS FOR INDUCING CANCER CELL DEATH” (UNIVERSITY OF MIAMI, priority 2010, published 2013)
